Measurements taken from patent publication US11160279B2, “Method of controlling herbicide resistant weeds” (Sumitomo Chemical Company, Limited, priority 2018, dated 2021).

Tests used:
Assay type in all cases: in vivo
[1] = tested on: Amaranthus palmeri having an Arg128Met mutation in PPO2; test: Foliar treatment 21 days after sowing weed and soybean, greenhouse pot test (Example 3); conditions: 10, 20, 40, or 80 g/ha foliar treatment 21 days after sowing, 200 L/ha aqueous dilution; examined 14 days after the treatment
Excerpt: Amaranthus palmeri having an Arg128Met mutation in PPO2 and soybean are sown in a plastic pot. Then, the weeds and soybean are cultivated in a greenhouse. A compound X is applied in an amount of 10, 20, 40, or 80 g/ha by spraying 200 L/ha of an aqueous dilution containing the compound X to perform foliar treatment 21 days after the sowing. Then, the weeds and soybean are cultivated in a greenhouse to examine the effects on the weeds and phytotoxic effects on soybean 14 days after the treatment.

[2] = tested on: Amaranthus palmeri having an Arg128Met mutation in PPO2; test: Soil surface treatment on the day the weed is sown, soybean sown 7 days later, greenhouse pot test (Example 1); conditions: 10, 20, 40, or 80 g/ha applied to soil surface, 200 L/ha aqueous dilution; soybean sown after 7 days; examined after 14 days
Excerpt: Amaranthus palmeri having an Arg128Met mutation in PPO2 is sown in a plastic pot. On the same day, a compound X is applied to the surface of soil in an amount of 10, 20, 40, or 80 g/ha by spraying 200 L/ha of an aqueous dilution containing the compound X. Then, the weeds are cultivated in a greenhouse and soybean seeds are sown after 7 days, to examine the effects on the weeds and phytotoxic effects on soybean after 14 days.

[3] = tested on: Amaranthus palmeri having an Arg128Met mutation in PPO2; test: Soil surface treatment on the day weed and soybean are sown, greenhouse pot test (Example 2); conditions: 10, 20, 40, or 80 g/ha applied to soil surface on day of sowing, 200 L/ha aqueous dilution; examined after 21 days
Excerpt: Amaranthus palmeri having an Arg128Met mutation in PPO2 and soybean are sown in a plastic pot. On the same day, a compound X is applied to the surface of soil in an amount of 10, 20, 40, or 80 g/ha by spraying 200 L/ha of an aqueous dilution containing the compound X. Then, the weeds and soybean are cultivated in a greenhouse to examine the effects on the weeds and phytotoxic effects on soybean after 21 days.

Measured: effects on the weeds (herbicidal effect)

CCOC(=O)COc1ncccc1Oc1cc(-n2c(=O)cc(C(F)(F)F)n(C)c2=O)c(F)cc1Cl [compound X, Ethyl [3-[2-chloro-4-fluoro-5-(1-methyl-6-trifluoromethyl-2,4-dioxo-1,2,3,4-tetrahydropyrimidine-3-yl)phenoxy]-2-pyridyloxy]acetate]
valuable effect: all assays above
